Results from patent US8962552B2, “Nanoparticles of therapeutic agents having low water solubility” (Centre Nationale de Recherche Scientifique, priority 2007, dated 2015).

Columns and labels:
[1] = system: L1210 WT murine leukemia cell line; assay: In vitro anticancer activity, MTT test on L1210 WT cells; assay type: cell-based; conditions: Mus musculus, 72 hours, nanoparticles, read-out: 50% inhibitory concentration (IC50)
Protocol: The in vitro anticancer activity of the conjugates of squalenoyl/paclitaxel type in the form of nanoparticles is performed on Madison's 109 (M109) murine pulmonary tumor cell line. The M109 cells are cultured in RPMI 1640, supplemented with 10% fetal calf serum, 50 U·ml^−1 of penicillin and 50 μg·ml^−1 of streptomycin and 2 mM of L-glutamine. This analysis is performed using the 3-[4,5-dimethylthiazol-2-yl]-3,5-diphenyltetrazolium bromide (MTT) test, which measures the mitochondrial dehydrogenase activity. The cells in exponential growth phase are inoculated into a 96-well plate and preincubated for 24 hours at 37° C. in a humidified atmosphere with 5% CO2 in the air. Various dilutions of paclitaxel nanoparticles are added to the cells in the culture medium. Each dilution is tested three times. After 72 hours at 37° C., 200 μL of MTT solution in the cell culture medium (0.5 mg/ml) are added to each well. […] The absorbing power of the transformed dyestuff, which is proportional to the number of viable cells, is measured at 570 nm using a microplate reader (Metertech Σ 960, Fisher Bioblock, Illkirch, France). The percentage of surviving cells is calculated by determining the ratio of the absorbing power between the treated cells and the untreated cells.
The in vitro anticancer activity of the squalenoyldoxorubicin nanoparticles is evaluated on an L1210 WT murine leukemia cell line. […]

[2] = system: L1210 aggressive metastatic leukemia model; assay: In vivo anticancer activity, L1210 aggressive metastatic leukemia model; conditions: 13 mg·kg^−1 i.v. on days 1, 7 and 14, DBA/2 mice
Source text: DBA/2 mice (4 to 5 weeks old) weighing about 15-18 g were used for this study. As for Example 17, the mice are fed with standard mouse feed and water ad libitum. The L1210 aggressive metastatic leukemia model (a murine leukemia) is developed by intravenously injecting the L1210 cells at exponential growth (0.1×10^6 cells) as a suspension, into the mice. The tumor-bearing mice are divided into 2 groups of 5-6, i.e. the untreated mice and the mice treated with squalenoyldoxorubicin nanoparticles (13 mg·kg^−1, injected intravenously on days 1, 7 and 14, after injection of the tumor cells). After treatment, the mice are controlled regularly to check the differences in weight and the survival rate, these parameters making it possible to evaluate the efficacy of the anticancer activity.

[3] = Nanoparticle size, polydispersity index and surface potential by light scattering; assay type: physicochemical
Protocol: In general, the nanoparticles thus obtained have a mean size ranging from 30 to 650 nm, in particular from 30 to 500 nm and in particular from 50 to 250 nm, or even from 100 to 200 nm, measured by light scattering using a Coulter® N4MD nanosizer from Coulter Electronics, Hialeah, USA.
4 mg of squalenoylpaclitaxel are dissolved in […] of ethanol (2.5 mg/ml) and added dropwise with continuous stirring (speed of 500 rpm) to 1 ml of an aqueous solution containing 5% dextrose. The squalenoylpaclitaxel self-assembles in the form of nanoparticles with a size of between 100 and 200 nm. The ethanol is then completely evaporated off under reduced pressure using a Rotavapor® to obtain a nanoparticulate suspension of squalenoylpaclitaxel at a final concentration of 4 mg/ml.
Variable amounts (stated in Table 1 below) of squalenoylpaclitaxel are dissolved in 0.25 ml of tetrahydrofuran (THF). The solutions obtained are added dropwise with continuous stirring (speed of 500 rpm) to 0.25 ml of water. The squalenoylpaclitaxel precipitates in the form of nanoparticles between 100 and 200 nm in size. The THF is then completely evaporated off under reduced pressure using a Rotavapor® to obtain nanoparticulate squalenoylpaclitaxel suspensions whose size varies as a function of the concentration (see the table below).
100 μl of squalenoyldeoxyspergualine dissolved in ethanol (4 mg/ml) are added dropwise to 2 ml of distilled water with vigorous stirring. After evaporating off the ethanol under reduced pressure using a Rotavapor®, a suspension of nanoparticles 162 nm in size (polydispersity index 0.12 characterized by a surface potential of 27.38±2.60 mV) is obtained.
The mean size of the nanoparticles and the polydispersity index of the nanoparticles are determined at a temperature of 20° C. by light scattering with a zetasizer machine (Malvern Instruments, UK). The measurements are taken after diluting the nanoparticle suspension in MilliQ® water.

[4] = system: Madison's 109 (M109) murine pulmonary tumor cell line; assay: In vitro anticancer activity, MTT test on M109 cells; assay type: cell-based; conditions: 72 hours, nanoparticles, read-out: 50% inhibitory concentration (IC50)
Protocol: The in vitro anticancer activity of the conjugates of squalenoyl/paclitaxel type in the form of nanoparticles is performed on Madison's 109 (M109) murine pulmonary tumor cell line. The M109 cells are cultured in RPMI 1640, supplemented with 10% fetal calf serum, 50 U·ml^−1 of penicillin and 50 μg·ml^−1 of streptomycin and 2 mM of L-glutamine. This analysis is performed using the 3-[4,5-dimethylthiazol-2-yl]-3,5-diphenyltetrazolium bromide (MTT) test, which measures the mitochondrial dehydrogenase activity. The cells in exponential growth phase are inoculated into a 96-well plate and preincubated for 24 hours at 37° C. in a humidified atmosphere with 5% CO2 in the air. Various dilutions of paclitaxel nanoparticles are added to the cells in the culture medium. Each dilution is tested three times. After 72 hours at 37° C., 200 μL of MTT solution in the cell culture medium (0.5 mg/ml) are added to each well. After incubating for 2 hours 30 minutes at 37° C., the culture medium is removed and the formazan crystals obtained are dissolved in 200 μL of an extraction solution (dimethyl sulfoxide). The absorbing power of the transformed dyestuff, which is proportional to the number of viable cells, is measured at 570 nm using a microplate reader (Metertech Σ 960, Fisher Bioblock, Illkirch, France). The percentage of surviving cells is calculated by determining the ratio of the absorbing power between the treated cells and the untreated cells.

[5] = system: M109 subcutaneous tumoral model (murine pulmonary tumor); assay: In vivo anticancer activity, M109 subcutaneous tumoral model; conditions: 160 mg·kg^−1 i.v. for 5 consecutive days, CD2F1 mice, FIG. 2
Source text: CD2F1 mice (4-5 weeks old) weighing about 15-18 g were used for this study. The mice are fed with standard mouse feed and water ad libitum. The M109 subcutaneous tumoral model (murine pulmonary tumor) is developed by injecting the M109 cells at exponential growth (1×10^6 cells) as a suspension, under the skin, into the lower portion of the abdomen of the mice. A palpable tumor (about 50-100 mm^3) is allowed to grow at the site of injection. The tumor-bearing mice are divided into 2 groups of 5-6, i.e. the untreated mice and the mice treated with squalenoyldiglycolyl-paclitaxel nanoparticles 160 mg·kg^−1 (injected intravenously for 5 consecutive days). The mice are controlled regularly to check the difference in the volume of the tumors, and thus to evaluate the anticancer efficacy.

[6] = system: mice (C57BL6); assay type: in vivo; conditions: 4 mg/ml suspension i.v., 4×50 mg/kg (paclitaxel equivalent)
Protocol: The nanoparticulate squalenoylpaclitaxel suspension as prepared in Example 3 (4 mg/ml) is directly injected intravenously into mice (C57BL6) at a dose of 4×50 mg/kg (paclitaxel equivalent); the injections take place on days 0, 5, 9 and 14. […] The direct intravenous injection of the Taxol solution (without dilution in 0.9% NaCl) leads to the immediate death of 100% of the treated mice. When the Taxol solution is prediluted in 0.9% NaCl, the maximum dose that can be injected is 20 mg/kg.

[7] = system: KB 3.1 cells; assay: Tubulin immunofluorescence (spindle-poisoning activity) by confocal fluorescence microscopy; assay type: cell-based, human; conditions: nanoparticles 5 μM, 14-16 hours, FIG. 1B
Protocol: The characterization of this activity is performed by immunofluorescence according to the following protocol:
Day 1: KB 3.1 cells originating from a human cervical carcinoma, and HT-29 cells corresponding to a human colon cancer cell line, are deposited on 6-well plates at a density of 20 000 cells/well (final volume 2 ml RPMI plus FCS). The cells are incubated at a temperature of 37° C. and at 5% CO2.
Day 2: The cells are rinsed and the squalenoylpaclitaxel nanoparticles (concentration 5 μM) as prepared according to the protocol described in Example 3 are added thereto.
Day 3: After 14-16 hours, rinsing is performed twice with PBS and the extraction solution (Triton X-100 plus 0.5% PEM-PIPES 100 mM, EGTA 2 mM, MgCl2 2 mM, pH 6.8) is then added. After 4 minutes, rinsing is performed, followed by addition of 2 ml of a 3% solution of formaldehyde in PEM. 40 minutes later, rinsing is performed and 20% FCS in PBS is added over 30 minutes. Murine anti-α-tubulin FITC monoclonal antibody (diluted to 1:200) is then added and the mixture is incubated for 1 hour. It is finally rinsed with PBS and an analysis by confocal fluorescence microscopy (Leica TCS SP2) is performed.

[8] = 20° C., zetasizer, diluted in MilliQ water, compositions of Example 15
[9] = Example 9: 100 μl of 4 mg/ml ethanol solution added to 2 ml distilled water

Q: Which IC50 [1] does the source give for COc1cccc2c1C(=O)c1c(O)c3c(c(O)c1C2=O)CC(O)(C(=O)COC(=O)CC/C(C)=C/CC/C(C)=C/CC/C=C(\C)CC/C=C(\C)CCC=C(C)C)CC3OC1CC(N)C(O)C(C)O1 (stereo not drawn) [Example 14, 14-squalenoyldoxorubicin] here?
A: Its IC50 is 0.291 µM.

Q: What about the “Anticancer activity (variations in weight of mice)” value ([2]; FIG. 3) of the same compound?
A: The value was “demonstrate effective anticancer activity”.

Q: What about the Survival rate ([2]; FIG. 4) of the same compound?
A: The Survival rate was “improved survival rate”.

Q: What about the Mean particle diameter [3, 8] of the same compound?
A: Its Mean particle diameter is 138.2 nm.

Q: What about the Polydispersity index [3, 8] of the same compound?
A: Its Polydispersity index is 0.325.

Q: Which Polydispersity index [3, 9] does the source give for CC(C)=CCC/C(C)=C/CC/C(C)=C/CC/C=C(\C)CC/C=C(\C)CCC(=O)NCCCNCCCCNC(=O)C(O)NC(=O)CCCCCCNC(=N)N (stereo not drawn) [squalenoyldeoxyspergualine] here?
A: The Polydispersity index was 0.12.

Q: And the Size of nanoparticles [3, 9]?
A: The Size of nanoparticles was 162 nm.

Q: And the Surface potential [3, 9]?
A: Its Surface potential is 27.38±2.60 mV.

Q: With “Squalenoyldiglycolyl-paclitaxel [Example 11]” as the compound, how does the IC50 [4] read?
A: The IC50 was 0.175 µM.

Q: What about the Mean particle diameter [3, 8] of the same compound?
A: Its Mean particle diameter is 150.0 nm.

Q: And the Polydispersity index [3, 8]?
A: The Polydispersity index was 0.075.

Q: What about the “Anticancer activity: progression of tumor volume” value [5] of the same compound?
A: Its value is “show anticancer activity by controlling the progression of the M109 tumors”.

Q: With “Squalenoylsuccinyl-PEG340-paclitaxel [Example 12]” as the compound, how does the IC50 [4] read?
A: The IC50 was 0.49 µM.

Q: And the Mean particle diameter [3, 8]?
A: The Mean particle diameter was 643.9 nm.

Q: And the Polydispersity index [3, 8]?
A: The Polydispersity index was 0.081.

Q: For monosqualenoylpaclitaxel, which Signs of toxicity ([6]; days 0, 5, 9 and 14, C57BL6 mice) is on record?
A: The Signs of toxicity was “do not show any sign of toxicity”.

Q: What about the Mortality ([6]; days 0, 5, 9 and 14, period of at least one month) of the same compound?
A: The Mortality was “No mortality is recorded”.

Q: And the “Formation of tubulin lumps (spindle-poisoning activity)” value [7]?
A: The value was “formation of tubulin lumps is clearly visible”.

Q: And the Polydispersity index ([3]; 0.36 mmol squalenoylpaclitaxel in 0.25 ml THF added to 0.25 ml water)?
A: Its Polydispersity index is 0.39.

Q: And the Polydispersity index ([3]; 0.88 mmol squalenoylpaclitaxel in 0.25 ml THF added to 0.25 ml water)?
A: The Polydispersity index was 0.30.

Q: What about the Polydispersity index ([3]; 1.76 mmol squalenoylpaclitaxel in 0.25 ml THF added to 0.25 ml water) of the same compound?
A: Its Polydispersity index is 0.31.

Q: What about the Diameter ([3]; 0.36 squalenoylpaclitaxel in 0.25 ml THF added to 0.25 ml water) of the same compound?
A: Its Diameter is 151 ± 84 nm.

Q: What about the Diameter ([3]; 0.88 squalenoylpaclitaxel in 0.25 ml THF added to 0.25 ml water) of the same compound?
A: Its Diameter is 169 ± 92 nm.

Q: What about the Diameter ([3]; 1.76 squalenoylpaclitaxel in 0.25 ml THF added to 0.25 ml water) of the same compound?
A: The Diameter was 177 ± 99 nm.

Q: What does the source list for squalenoylC22-paclitaxel [Example 13]?
A: IC50 [4]: 7.3 µM; Mean particle diameter [3, 8]: 239.3 nm; Polydispersity index [3, 8]: 0.077

Q: Which results are given for “squalenoylsuccinylpaclitaxel [Example 10]”?
A: IC50 [4]: 0.072 µM; Mean particle diameter [3, 8]: 250.9 nm; Polydispersity index [3, 8]: 0.061
